Measured values as given in PubChem BioAssay (NCI).
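Step 1: Grow cells in 96-well plates. Step 2: Expose to compound for 48 hours at 5 concentrations. Step 3: Interpolate endpoints linearly; if unreached, use highest concentration. The concentration for 50% growth inhibition is given as GI50. TGI: concentration producing complete growth inhibition.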

Experiments:
Experiment in all cases: growth of human tumour cells (NCI), 48 h
[1] = test system: MDA-MB-231 breast
[2] = test system: SK-MEL-2 melanoma
[3] = test system: A549 NSCLC
[4] = test system: OVCAR-8 ovarian
[5] = test system: SF-268 CNS
[6] = test system: MDA-MB-435
[7] = test system: HCT-116 colon
[8] = test system: BT-549 breast
[9] = test system: HCC-2998 colon
[10] = test system: NCI-H23 lung

Row | Compound | GI50 [1] [µM] | TGI [1] [µM] | GI50 [2] [µM] | TGI [2] [µM] | GI50 [3] [µM] | TGI [3] [µM] | GI50 [4] [µM] | TGI [4] [µM] | GI50 [5] [µM] | TGI [5] [µM] | GI50 [6] [µM] | TGI [6] [µM] | GI50 [7] [µM] | TGI [7] [µM] | GI50 [8] [µM] | TGI [8] [µM] | GI50 [9] [µM] | TGI [9] [µM] | GI50 [10] [µM] | TGI [10] [µM]
1 | N#C/C(=N\Nc1ccccc1)C(=O)Nc1cc(-c2ccccc2)nn1-c1ccccc1 | 3.34 | > 100 | 2.19 | 9.94 | 2.95 | > 100 | 3.25 | > 100 | 3.85 | > 100 | 3.05 | > 100 | 2.14 | > 100 | 2.2 | 6.47 | 3.81 | > 100 | 2.73 | 60.5
2 | CCCCCC[C@@H](C)NC(=O)c1ccc(Nc2nc3ccccc3c3occc23)cc1 | 10.2 | > 100 | 2.51 | 7.23 | 3.17 | > 100 | 3.08 | 16.5 | 5.73 | > 100 | 2.98 | > 100 | 1.92 | 11.3 | 2.35 | 7.61 | 2.51 | 9.16 | 2.06 | 6.59
3 | CC(=O)/C=C/C1=C(c2csc3ccccc23)c2ccccc2CC1 | 22.8 | 69.5 | 15.2 | 40.9 | 24 | > 100 | 30.4 | > 100 | 31.8 | > 100 | 21.6 | 70.7 | 6.16 | 95 | 22.9 | 55 | 24.3 | 49.6 |  | 
4 | Cc1[nH]c(N)nc(=S)c1CCC(=O)O |  | > 100 |  | > 100 |  | > 100 |  | > 100 |  | > 100 |  | > 100 |  | > 100 |  | > 100 |  | > 100 |  | > 100
5 | Cc1ccc2c(c1)C(=O)c1c-2c(OCCCN(C)C)nc2ccccc12 | 1.64 | 5.45 | 11.7 | 27.4 | 1.46 | 3.19 | 2.93 | 17 | 2.3 | 12.9 | 1.54 | 2.97 | 0.718 | 2.12 | 6.02 | 20.2 | 2.18 | 11.8 | 1.66 | 4.48
6 | O=C(CI)Nc1ccc(O)c2ccccc12 | 2.59 | 6.69 | 2.93 | 9.22 | 3.56 | 13.7 | 1.93 | 7.15 | 2.03 | 5.56 | 1.9 | 4.34 | 0.481 | 1.16 | 2.28 | 6.25 | 2.13 | 4.91 | 1.67 | 3.69
7 | Nc1nc2cc(CC[C@H]3C[C@@H](n4ccc5c(N)ncnc54)[C@H](O)[C@@H]3O)ccc2cc1Br | 11.1 | 24.4 | 10.9 | 25.1 | 12.4 | 34.3 | 7.73 | 34.1 | 11.3 | 27 | 4.34 | 18.4 | 2.45 | 19.9 | 2.41 | 16 | 11.2 | 24.4 | 2.07 | 23.9
8 | CC([C@H]1CC=C2C3CCC4=C[C@@H](N(C)C)CC[C@]4(C)C3CC[C@@]21C)N(C)C (stereo partly drawn) | 2.33 | 7.9 | 8.23 | 21 | 3.97 | 11.1 | 5.85 | 22.3 | 1.98 | 4.71 | 2 | 4.94 | 1.07 | 2.76 | 3.54 | 15.4 | 4.21 | 13.1 | 3.15 | 14.8
9 | CC(=O)O[C@H]1C(=O)[C@@]2(C)[C@H]([C@H](OC(=O)c3ccccc3)[C@]3(O)C[C@H](OC(=O)[C@H](OC(=O)OC[C@H]4COC(C)(C)O4)[C@@H](NC(=O)c4ccccc4)c4ccccc4)C(C)=C1C3(C)C)[C@]1(OC(C)=O)CO[C@@H]1C[C@@H]2O | 0.0736 | > 7.74 | 0.0978 | > 33.3 | 0.0295 | > 33.3 | 0.0598 | > 33.3 | 0.165 | > 33.3 | 0.00333 | 0.00852 | 0.00596 | > 33.3 | 0.0576 | > 33.3 | 0.00983 | > 33.3 | 0.0476 | > 33.3
10 | COc1cc(C(=O)O[C@H](C(=O)NCCN(C)CCNC(=O)[C@@H](OC(=O)c2cc(OC)cc3c(C)cccc23)[C@]2(C)CO2)[C@]2(C)CO2)c2cccc(C)c2c1 | 0.264 | 1.58 | 0.253 | > 100 |  |  | < 0.01 | < 0.0324 | < 0.01 | 0.929 | < 0.01 | 0.0398 | 0.0751 | 2.93 | 0.342 | 4.85 | < 0.0241 | 0.771 | < 0.01 | 0.0137
11 | ClCc1ccccc1Cn1cnc2c(Cl)ncnc21 | 3.04 | 7.41 | 2.76 | 18.1 | 7.73 | 25.8 | 2.22 | 5.21 | 3.24 | 10.9 | 3.01 | 9.49 | 1.91 | 3.69 | 2 | 5.51 | 1.67 | 3.54 | 2.02 | 4.34
12 | O=C(C#Cc1ccccc1)C1=Cc2ccccc2OC1 |  | 10.5 |  | 11.7 |  | > 37.6 |  | 5.85 |  | 12.5 |  | 12.5 |  | 4.21 |  | 5.16 |  | 19.6 |  | 5.47
13 | COc1ccc(NC(=O)c2sc3nc(C)c(C(=O)/C=C/c4cccc(OC)c4)cc3c2N)cc1 | 1.66 | > 50 | 1.54 | 18 | 1.18 | 9.22 | 1.59 | > 50 | 2.07 | 14.1 | 1.35 | 6.78 | 0.773 | 1.7 | 1.02 | 2.67 | 1.52 | 5.32 | 2.35 | 18.6
14 | C[C@H]1COCCN1c1cc(C2(S(=O)(=O)C3CC3)CC2)nc(-c2ccc(NC(=S)NCCO)cc2)n1 | 0.0327 | 26.2 | 0.0289 | 0.517 | 0.0782 | 4.35 | 0.0511 | 3.06 | 0.0332 | > 41.3 | 0.0244 | 1.19 | 0.0985 | 21.4 | < 0.012 | 0.134 | 0.035 | > 70.3 | 0.036 | 30.6
15 | O=C(c1ccccc1)c1c(C(F)(F)F)n([O-])c2cc(C(F)(F)F)ccc2[n+]1=O | 1.6 | 3.11 | 2.09 | 3.93 | 1.72 | 3.48 | 1.87 | 5.46 | 1.58 | 3.14 | 1.6 | 3.02 | 0.951 | 2.36 | 0.91 | 2.27 | 1.88 | 3.44 | 1.54 | 4.9
16 | Cc1c(Cl)cccc1NC(=O)/C=C/c1ccccc1 |  | 96.3 |  | > 100 |  | > 100 |  | > 100 |  | > 100 |  | > 100 |  | > 100 |  | > 100 |  | > 100 |  | > 100
17 | COc1ccc2c(c1OC)C(C(Cl)(Cl)Cl)N1CCc3cc4c(cc3C1=C2)OCO4 (stereo not drawn) |  | > 100 |  | 39.4 |  | > 100 |  | > 100 |  | 91.1 |  | 27 |  | 27.9 |  | 8.63 |  | 29.5 |  | > 100
18 | C[n+]1c2ccccc2nc2ccccc21 | 0.359 | 2.12 | 1.76 | 4.54 | 2.93 | 19.9 | 2.61 | 20.6 | 2.52 | 7.78 | 0.516 | 1.75 | 0.82 | 2.89 | 2.26 | 10.8 | 2.11 | 7.22 | 0.67 | 2.34
19 | Cc1nc2ccccn2c1NC(=O)NNC(=S)Nc1ccc(F)cc1 | > 100 | > 100 | > 100 | > 100 | > 100 | > 100 | > 100 | > 100 | > 100 | > 100 | > 100 | > 100 | > 100 | > 100 | > 100 | > 100 | > 100 | > 100 |  | 
20 | COC(=O)C(=O)C(C(=O)C(=O)Nc1ccccc1OC)c1nc2ccc([N+](=O)[O-])cc2[nH]c1=O (stereo not drawn) |  | > 100 |  | > 100 |  | > 100 |  | > 100 |  | > 100 |  | > 100 |  | > 100 |  | > 100 |  | > 100 |  | 
